According to patent US10287337B2 (priority 2015, dated 2019):

Columns and labels:
[1] = test system: spared nerve injury-induced neuropathic pain in rats; experiment: Spared nerve injury (SNI)-induced neuropathic pain model, thermal and mechanical pain thresholds; assay type: in vivo, rat; conditions: 50 μL
Experimental: Of the three branches of the sciatic nerve the tibial and common peroneal nerves were cut and ligated leaving the sural nerve intact. Pre-surgery baselines (BL, 100%) of the thermal and mechanical pain thresholds of the ipsilateral hindpaws were measured using the Hargreaves thermal stimulator (6.0 A with a surface temperature of 30° C.; Hargreaves et al., 1988) and von Frey hair monofilaments (up-down method, Chaplan et al., 1994). […] All drug testing was conducted with this post-SNI period.
The rat recovered from anesthesia within a few minutes and the thermal and mechanical pain thresholds were determined at 0.5, 1, 2, 3, 4, 5 and 6 hour after the treatment using the methods described above.
Using the same test protocol in a different cohort of SNI rats, novel AFA-peptide 3 (0.1, 1 and 3 μM, each 50 μL) or the vehicle (50 μL) was injected into the ipsilateral hindpaws under a brief and light anesthesia condition (with 2.5% isoflurane). The thermal and mechanical pain thresholds were determined at 0.5, 1, 2, 3, 4, 5 and 6 hour after the treatment. […]

[2] = test system: electrocutaneous stimulation-induced facial pain in rats; experiment: Electrocutaneous stimulation-induced facial inflammatory pain model; assay type: in vivo, rat; conditions: intranasal
Experimental: In humans electrocutaneous stimulation elicited vasodilatation in the cheek (Vassend and Knardahl, 2005). […] Baseline facial thermal thresholds of rats (Sprague-Dawley, male, 260-300 g) were assessed on the rats' depilated left cheek and then each rat received 1 hour of electrocutaneous facial stimulation using WPI ISOSTIM™ A320 (World Precision Instruments, 0.4 mA intensity, 10 ms duration, Is inter-pulse interval). 24 hr after stimulation (Day 1), each rat's thermal pain threshold mediated by A-delta fiber and C fiber were separately measured using a thermal nociception lamp (variable voltage regulator model: No. SC-3M) to evoke A-delta and C nerve fiber-mediated cheek withdrawal. […] Thermal thresholds were measured once every 0.5 hour for the first 3 hours post-I.N. dosing, and then 4, 5, and 6 hour post-I.N. dosing. Voltage regulator set to 90V for A-delta fiber testing and 45V for C fiber testing. Cutoff set at 6 seconds and 20 seconds for A-delta fiber and C fiber testing, respectively.

[3] = daily intradermal injection 1 μM, 10 consecutive days

For “H-NFVPTNVGPFAF-NH2 [AFA-peptide 3, NH2-N-F-V-P-T-N-V-G-P-F-A-F-CONH2]”, the “analgesic effect on repeated dosing (in words)” value [1, 3] was “consistent analgesic effects”, the “tolerance on repeated dosing (in words)” value [1, 3] was “did not cause tolerance” and the “thermal and mechanical pain thresholds (in words)” value ([1]; local intradermal injection into SNI ipsilateral hindpaw, 0.5-6 hour after treatment, vs vehicle) was “produced analgesic effects, particularly on thermal pain in a dose-related manner”. For the same substance, the “A-delta fiber-mediated pain withdrawal latencies vs vehicle (in words)” value ([2]; 1 μM) was “significantly prolonged”, the “C-fiber-mediated pain withdrawal latencies vs vehicle (in words)” value ([2]; 1 μM) was “even more substantial and significantly prolonged” and the “thermal pain thresholds in naïve, non-facial stimulation rats (in words)” value ([2]; data not shown) was “did not alter thermal pain thresholds”.
